Data set [1] has as its system Staphylococcus aureus MRSA ATCC 33591. In words: Broth microdilution MIC. As to conditions: Staphylococcus aureus MRSA ATCC 33591, 24 h.
The subject of data set [2] is Enterococcus faecalis ATCC 51299 VanB. The data set can be described thus: Broth microdilution MIC. The settings on record: Enterococcus faecalis ATCC 51299 VanB, 24 h. Background: Broth dilution looks for growth in wells or tubes with falling amounts of substance.
For data set [3], the system named is Staphylococcus epidermidis mecA. The data set can be described thus: Broth microdilution MIC. The settings on record: Staphylococcus epidermidis mecA, 24 h.
For data set [4], the system named is Bacillus subtilis ATCC 6633. The data set can be described thus: Broth microdilution MIC. As to conditions: ATCC6633, 24 h.
The test system of data set [5] is SARS-CoV-2. The data set can be described thus: microbe, parasite or virus in culture. Format: cell-based. The settings on record: Vero E6 cells, MOI 0.04, three days, XTT; read-out: SARS-CoV-2 CPE, EC50. On the technique in general: Tetrazolium assays rely on reduction of a dye to a coloured formazan, in cell work by metabolically active cells.
The subject of data set [6] is SARS-CoV-2. In words: Viral RNA reduction assay (ddPCR) in Vero E6 cells, MOI 0.01. As to conditions: read-out: SARS-CoV-2 RNA Reduction EC50; Vero E6 cells, MOI 0.01, 48 h, ddPCR of supernatant.
Data set [7] has as its system Staphylococcus epidermidis ATCC 35984 biofilm. The data set can be described thus: Broth microdilution MIC. As to conditions: Staphylococcus epidermidis ATCC 35984 biofilm, 24 h.
Data set [8] has as its target Human recombinant cathepsin L (Homo sapiens, UniProt P07711). The data set can be described thus: Cathepsin L inhibition assay. It is filed as biochemical. The settings on record: at 50 μM.
For data set [9], the system named is SARS-CoV-2. As to conditions: read-out: IC50 for blocking SARS-CoV-2 entry; cited from earlier work.
The subject of data set [10] is Staphylococcus aureus MSSA ATCC 29213. The data set can be described thus: Broth microdilution MIC. As to conditions: Staphylococcus aureus MSSA ATCC 29213, 24 h.
For a further data set, the target named is 3CLPro (Severe acute respiratory syndrome coronavirus 2, UniProt P0DTD1). The data set can be described thus: 3CLPro FRET-based inhibition assay. It is filed as biochemical, SARS-CoV-2. The settings on record: at 200 μM.
In data set [11] the test system is SARS-CoV-2. In words: microbe, parasite or virus in culture. It is filed as cell-based. As to conditions: Vero E6 cells, MOI 0.04, three days, dilutions from 100 µM; read-out: SARS-CoV-2 IFA, EC50.
Data set [12] addresses T1, Human recombinant cathepsin B (exopeptidase activity) (Homo sapiens, UniProt P07858).
T1 construct: The Preparation of Catalytically Active Human Cathepsin B from Its Precursor Expressed in Escherichia coli; made in house; host or cells: Escherichia coli
The data set can be described thus: Cathepsin B exopeptidase inhibition assay. As to conditions: at 50 μM. It is filed as biochemical.

For a further data set, the system named is Vero E6 cells. The settings on record: dilutions from 100 µM.
The test system of data set [13] is Enterococcus faecalis 15376 VanA. The data set can be described thus: Broth microdilution MIC. The settings on record: Enterococcus faecalis 15376 VanA, 24 h.
Data set [14] has as its system Enterococcus faecalis ATCC 29212. In words: Broth microdilution MIC. As to conditions: ATCC29212, 24 h.
The subject of a further data set is SARS-CoV-1. As to conditions: read-out: IC50 for blocking SARS-CoV-1 entry; cited from earlier work.

The values below come from article PMC8619593 (Pharmaceuticals, 2021).

Where “and” joins values, the source holds several entries; their conditions need not be identical. Equal entries are not always repeated. Where only a bound is given, the exact number is not on record here.

Sequence of Human recombinant cathepsin L (P07711 114-333): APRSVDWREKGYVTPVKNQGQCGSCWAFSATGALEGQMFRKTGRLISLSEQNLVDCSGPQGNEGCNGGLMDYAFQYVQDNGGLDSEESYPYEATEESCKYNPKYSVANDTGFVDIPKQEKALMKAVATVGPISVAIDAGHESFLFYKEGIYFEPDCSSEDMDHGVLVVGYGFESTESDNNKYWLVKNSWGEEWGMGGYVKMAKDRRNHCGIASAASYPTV

The EC50 is the concentration needed to bring the measured effect to its halfway point. Broadly, the IC50 is the concentration that gives 50% inhibition. A word on the CC50: it is the concentration at which the toxic effect on the cells reaches its halfway point. Lower therefore signals greater toxicity to the cells. Regarding “teicoplanin [Compound 3, reference compound]”, the MIC in [1] is 0.5 mg/L; in data set [2], 4 mg/L; in data set [3], 16 mg/L; in [4], 0.5 mg/L; in data set [7], 2 mg/L; in data set [10], 0.5 mg/L. For the same substance, the MIC in [13] amounted to 256 mg/L; in data set [14], 2 mg/L. The concentration for a half-maximal effect (EC50) in the data set with SARS-CoV-2 [5] is 15.7 µM and 16 µM; in the data set on SARS-CoV-2 [6], 5.6 ± 1.3 µM; in the data set with SARS-CoV-2 [11], 18 ± 5.4 µM. For the same substance, the “Cathepsin L relative inhibition” value in [8] came out at 5.07% at 50 μM; in data set [8] (listed as teicoplanin) it was 5%. Further, the figures for the IC50 in the data set on SARS-CoV-2 [9] and in the data set on SARS-CoV-1 were 1.66 µM and 3.76 µM, respectively. For the same substance, the 3CLPro inhibition at 3CLPro was determined as 13% at 200 μM. Further, the “Exopeptidase Cathepsin B relative inhibition” value in data set [12] was determined as 0.45% at 50 μM. In the data set with Vero E6 cells, this substance came in with a CC50 above 100 µM.
